Assays:
[1] = target: T1, 5-HT2a (Homo sapiens, UniProt P28223); assay: Radioligand binding, 5-HT receptor family: 5-HT2a ([3H]Ketanserin); conditions: CHO-K1 human recombinant receptor, [3H]Ketanserin 1 nM; read-out: Binding affinity, IC50 (nM), 5-HT2a
T1 construct: purchased Euroscreen/BioSignal Packard Inc

[2] = target: Human serotonin 5-HT6 receptor (Homo sapiens, UniProt P50406); assay: [3H]LSD binding assay on cloned 5-HT6 receptor; conditions: IC50 (nM)
[3] = target: T2, 5-HT7 (Homo sapiens, UniProt P34969); assay: Radioligand binding, 5-HT receptor family: 5-HT7 ([3H]LSD); conditions: CHO-K1 human recombinant receptor, [3H]LSD 3 nM; read-out: Binding affinity, IC50 (nM), 5-HT7
T2 construct: purchased Euroscreen/BioSignal Packard Inc
T2 sequence (P34969 whole entry): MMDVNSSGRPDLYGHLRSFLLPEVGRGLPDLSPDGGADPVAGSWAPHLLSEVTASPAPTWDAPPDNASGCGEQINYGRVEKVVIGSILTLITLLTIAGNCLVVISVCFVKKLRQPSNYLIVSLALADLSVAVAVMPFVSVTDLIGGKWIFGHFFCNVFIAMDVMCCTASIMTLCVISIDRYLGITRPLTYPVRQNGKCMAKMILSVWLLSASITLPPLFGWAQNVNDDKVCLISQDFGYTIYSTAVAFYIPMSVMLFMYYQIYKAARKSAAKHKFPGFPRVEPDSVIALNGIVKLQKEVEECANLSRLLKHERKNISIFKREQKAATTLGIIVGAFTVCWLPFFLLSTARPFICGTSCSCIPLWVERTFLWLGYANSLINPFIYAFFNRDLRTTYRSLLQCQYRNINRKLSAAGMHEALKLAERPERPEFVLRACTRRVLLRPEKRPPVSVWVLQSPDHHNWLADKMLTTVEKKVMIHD
Protocol: Radioligand bindings were performed according to the test method provided by the supplier of receptor membrane (Euroscreen/BioSignal Packard Inc.). The detailed assay conditions and the results were shown in the following Table 3 and Table 4, respectively.

[4] = target: D1 (Homo sapiens, UniProt P21728); assay: Dopamine receptor family binding: D1; conditions: read-out: Binding affinity, IC50 (nM), D1
Sequence of D1 (P21728 whole entry): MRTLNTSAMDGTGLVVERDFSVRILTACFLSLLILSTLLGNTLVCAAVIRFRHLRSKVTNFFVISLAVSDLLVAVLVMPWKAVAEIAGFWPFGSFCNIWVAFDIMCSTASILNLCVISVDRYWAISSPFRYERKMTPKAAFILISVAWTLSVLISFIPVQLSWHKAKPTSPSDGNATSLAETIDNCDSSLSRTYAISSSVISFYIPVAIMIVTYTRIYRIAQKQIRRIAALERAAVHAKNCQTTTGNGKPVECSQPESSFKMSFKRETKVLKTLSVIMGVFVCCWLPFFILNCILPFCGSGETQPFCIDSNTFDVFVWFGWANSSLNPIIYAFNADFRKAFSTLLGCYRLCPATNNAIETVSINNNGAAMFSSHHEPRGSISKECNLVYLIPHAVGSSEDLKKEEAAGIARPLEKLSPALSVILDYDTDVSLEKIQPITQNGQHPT

[5] = target: T3, hD4.2 receptor (Homo sapiens, UniProt P21917, DEL265-296); assay: Dopamine receptor family binding: D4 ([3H]YM-09151-2); conditions: [3H]YM-09151-2 0.06 nM; read-out: Binding affinity, IC50 (nM), D4
T3 construct: purchased BioSignal Packard Inc., Montreal, Canada
T3 sequence (P21917 with tags, fused parts or gaps DEL265-296): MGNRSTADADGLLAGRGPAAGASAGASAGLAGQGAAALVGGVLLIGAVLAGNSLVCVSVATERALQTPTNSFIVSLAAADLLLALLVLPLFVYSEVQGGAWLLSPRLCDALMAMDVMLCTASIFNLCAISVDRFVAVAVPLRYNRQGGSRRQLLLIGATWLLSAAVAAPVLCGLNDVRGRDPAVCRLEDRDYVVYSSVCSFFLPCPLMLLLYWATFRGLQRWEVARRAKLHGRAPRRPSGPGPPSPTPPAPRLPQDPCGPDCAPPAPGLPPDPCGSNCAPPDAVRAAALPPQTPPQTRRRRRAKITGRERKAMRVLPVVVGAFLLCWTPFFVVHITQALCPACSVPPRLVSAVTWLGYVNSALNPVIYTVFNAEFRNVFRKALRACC
Protocol: (§1) 2-2: Binding Assays of Dopamine Receptor Family
(§2) The radioligands used were [^3H]spiperone (for hD2L and hD3 receptors, 1 nM) and [^3H] YM-09151-2 (for hD4.2 receptor, 0.06 nM). Radioligand bindings were performed by the protocols provided by the supplier of receptor membranes (BioSignal Packard Inc., Montreal, Canada). Briefly, the buffer used in D2 or D3 receptor binding assay was 50 mM Tris-HCl (pH 7.4), 10 mM MgCl2, 1 mM EDTA, or 50 mM Tris-HCl (pH 7.4), 5 mM MgCl2 5 mM EDTA, 5 mM KCl, 1.5 mM CaCl2, 120 mM NaCl, respectively. In [^3H] YM-09151-2 receptor binding assays, the buffer containing 50 mM Tris-HCl (pH 7.4), 5 mM MgCl2, 5 mM EDTA, 5 mM KCl and 1.5 mM CaCl2 was used. […] Competition binding studies were carried out with 7-8 concentrations of the test compound run in duplicate tubes, and isotherms from three assays were calculated by computerized nonlinear regression analysis (GraphPad Prism Program, San Diego, […]) to yield median inhibitory concentration (IC50) values.

[6] = target: T4, hD2L receptor (Homo sapiens, UniProt P14416); assay: Dopamine receptor family binding: D2 ([3H]spiperone); conditions: [3H]spiperone 1 nM; read-out: Binding affinity, IC50 (nM), D2
T4 construct: purchased BioSignal Packard Inc., Montreal, Canada
T4 sequence (P14416 whole entry): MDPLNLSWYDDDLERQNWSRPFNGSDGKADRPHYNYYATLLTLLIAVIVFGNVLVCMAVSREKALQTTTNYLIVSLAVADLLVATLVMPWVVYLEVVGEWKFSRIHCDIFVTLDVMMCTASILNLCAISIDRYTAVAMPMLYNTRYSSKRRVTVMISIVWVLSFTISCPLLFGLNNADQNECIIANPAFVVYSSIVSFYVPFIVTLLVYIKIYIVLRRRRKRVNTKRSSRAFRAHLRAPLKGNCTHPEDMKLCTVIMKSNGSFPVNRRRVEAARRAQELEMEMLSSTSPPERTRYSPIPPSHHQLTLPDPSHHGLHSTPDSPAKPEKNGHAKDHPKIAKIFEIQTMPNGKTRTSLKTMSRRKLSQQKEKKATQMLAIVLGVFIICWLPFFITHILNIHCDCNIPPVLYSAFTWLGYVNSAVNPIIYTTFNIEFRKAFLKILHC
Protocol: as §1, §2

[7] = target: T5, 5-HT1a (Homo sapiens, UniProt P08908); assay: Radioligand binding, 5-HT receptor family: 5-HT1a ([3H]8-OH-DPAT); conditions: CHO-K1 human recombinant receptor, [3H]8-OH-DPAT 0.5 nM; read-out: Binding affinity, IC50 (nM), 5-HT1a
T5 construct: purchased Euroscreen/BioSignal Packard Inc
T5 sequence (P08908 1-422): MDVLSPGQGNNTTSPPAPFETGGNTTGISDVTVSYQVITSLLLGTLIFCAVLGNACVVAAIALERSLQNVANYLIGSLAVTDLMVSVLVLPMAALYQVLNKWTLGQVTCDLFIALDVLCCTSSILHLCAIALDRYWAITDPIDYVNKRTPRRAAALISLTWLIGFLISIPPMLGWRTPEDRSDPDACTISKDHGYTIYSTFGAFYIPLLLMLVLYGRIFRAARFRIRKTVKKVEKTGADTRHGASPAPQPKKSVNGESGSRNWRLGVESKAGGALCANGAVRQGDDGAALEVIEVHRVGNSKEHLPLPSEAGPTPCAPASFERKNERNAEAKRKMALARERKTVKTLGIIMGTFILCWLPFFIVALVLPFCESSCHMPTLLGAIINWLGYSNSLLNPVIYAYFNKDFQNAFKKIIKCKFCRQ

[8] = target: T6, 5-HT2c (Homo sapiens, UniProt P28335); assay: Radioligand binding, 5-HT receptor family: 5-HT2c ([3H]Mesulergine); conditions: CHO-K1 human recombinant receptor, [3H]Mesulergine 1 nM; read-out: Binding affinity, IC50 (nM), 5-HT2c
T6 construct: purchased Euroscreen/BioSignal Packard Inc
T6 sequence (P28335 33-458): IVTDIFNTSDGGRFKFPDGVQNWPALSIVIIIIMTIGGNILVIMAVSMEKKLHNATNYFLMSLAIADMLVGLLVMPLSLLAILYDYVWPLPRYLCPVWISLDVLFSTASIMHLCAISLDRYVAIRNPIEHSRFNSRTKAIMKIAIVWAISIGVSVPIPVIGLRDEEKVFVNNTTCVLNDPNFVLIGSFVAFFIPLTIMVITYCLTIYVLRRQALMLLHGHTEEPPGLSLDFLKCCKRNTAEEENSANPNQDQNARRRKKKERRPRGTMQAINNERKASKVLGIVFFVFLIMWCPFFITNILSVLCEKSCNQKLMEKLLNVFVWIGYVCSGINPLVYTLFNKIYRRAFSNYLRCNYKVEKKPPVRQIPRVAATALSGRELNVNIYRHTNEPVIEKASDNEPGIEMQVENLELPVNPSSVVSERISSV

[9] = target: T7, hD3 receptor (Homo sapiens, UniProt P35462); assay: Dopamine receptor family binding: D3 ([3H]spiperone); conditions: [3H]spiperone 1 nM; read-out: Binding affinity, IC50 (nM), D3
T7 construct: purchased BioSignal Packard Inc., Montreal, Canada
T7 sequence (P35462 whole entry): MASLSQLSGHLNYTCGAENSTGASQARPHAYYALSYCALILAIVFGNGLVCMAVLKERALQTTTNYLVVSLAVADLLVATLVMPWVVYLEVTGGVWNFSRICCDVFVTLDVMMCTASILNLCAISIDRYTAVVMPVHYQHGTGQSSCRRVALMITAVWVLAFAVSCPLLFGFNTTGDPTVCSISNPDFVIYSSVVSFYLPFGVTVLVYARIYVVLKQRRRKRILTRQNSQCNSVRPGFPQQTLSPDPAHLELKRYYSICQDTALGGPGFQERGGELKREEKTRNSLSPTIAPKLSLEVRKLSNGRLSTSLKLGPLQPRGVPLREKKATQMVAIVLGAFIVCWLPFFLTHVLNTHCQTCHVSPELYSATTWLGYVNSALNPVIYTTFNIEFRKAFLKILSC

[10] = Binding affinity, 5-HT6, Table 4
[11] = binding affinity to the 5-HT6 receptor, Table 2, 1.87 nM [3H]LSD, cloned human receptor membranes from Sf21 cells, 37° C. 60 min

Sequence of Human serotonin 5-HT6 receptor (P50406 whole entry): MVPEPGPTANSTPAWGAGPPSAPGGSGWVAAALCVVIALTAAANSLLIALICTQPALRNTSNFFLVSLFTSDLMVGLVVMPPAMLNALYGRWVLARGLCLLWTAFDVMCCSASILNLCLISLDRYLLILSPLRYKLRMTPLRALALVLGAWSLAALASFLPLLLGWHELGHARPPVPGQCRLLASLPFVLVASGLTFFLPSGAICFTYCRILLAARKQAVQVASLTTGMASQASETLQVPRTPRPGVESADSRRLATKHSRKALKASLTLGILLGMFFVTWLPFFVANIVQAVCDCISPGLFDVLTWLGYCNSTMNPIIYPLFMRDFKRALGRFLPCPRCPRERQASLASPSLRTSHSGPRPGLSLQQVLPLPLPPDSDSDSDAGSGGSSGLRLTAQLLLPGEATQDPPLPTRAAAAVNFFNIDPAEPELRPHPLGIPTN
T1 sequence (P28223 whole entry): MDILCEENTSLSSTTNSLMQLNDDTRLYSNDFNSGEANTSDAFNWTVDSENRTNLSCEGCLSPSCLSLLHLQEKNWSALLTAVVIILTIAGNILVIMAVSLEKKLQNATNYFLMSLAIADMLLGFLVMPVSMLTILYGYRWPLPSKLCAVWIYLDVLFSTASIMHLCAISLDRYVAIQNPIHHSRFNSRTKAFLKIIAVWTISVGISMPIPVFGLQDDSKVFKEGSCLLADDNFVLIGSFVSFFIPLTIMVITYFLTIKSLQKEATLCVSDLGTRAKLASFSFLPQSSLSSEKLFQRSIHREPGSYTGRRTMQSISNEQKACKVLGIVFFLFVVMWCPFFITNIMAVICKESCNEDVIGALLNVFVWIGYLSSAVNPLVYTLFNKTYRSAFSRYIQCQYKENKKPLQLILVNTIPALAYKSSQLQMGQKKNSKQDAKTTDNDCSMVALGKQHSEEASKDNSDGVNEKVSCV

Structure (SMILES): C[C@H](c1ccccc1)N1C(=O)N(Cc2ccccc2)c2cc(Cl)cc(N3CCN(C)CC3)c2S1(=O)=O [Example 25, 4-Benzyl-6-chloro-8-(4-methyl-piperazin-1-yl)-1,1-dioxo-2-[(R)-1-phenyl-ethyl]-1,4-dihydro-2H-1λ^6-benzo[1,2,4]thiadiazin-3-one]
- IC50 [1]: 350 nM
- IC50 [2, 10]: 1.1 nM
- IC50 [2, 11]: 1.1 nM
- IC50 [3]: 8560 nM
- IC50 [4]: 963 nM
- IC50 [5]: > 10000 nM
- IC50 [6]: 1920 nM
- IC50 [7]: > 10000 nM
- IC50 [8]: 691 nM
- IC50 [9]: 265 nM

Structure (SMILES): CCN1C(=O)N(Cc2ccccc2)c2cc(Cl)cc(N3CCN(C)CC3)c2S1(=O)=O [Example 33, 4-Benzyl-6-chloro-2-ethyl-8-(4-methyl-piperazin-1-yl)-1,1-dioxo-1,4-dihydro-2H-1λ^6-benzo[1,2,4]thiadiazin-3-one]
- IC50 [1]: 119 nM
- IC50 [2, 10]: 0.3 nM
- IC50 [2, 11]: 0.3 nM
- IC50 [3]: > 10000 nM
- IC50 [5]: > 10000 nM
- IC50 [6]: > 10000 nM
- IC50 [7]: 2620 nM
- IC50 [8]: 1240 nM
- IC50 [9]: 3170 nM
- melting point: 167 to 169 °C

Structure (SMILES): CCCN1C(=O)N(Cc2ccccc2)c2cc(Cl)cc(N3CCN(C)CC3)c2S1(=O)=O [Example 34, 4-Benzyl-6-chloro-8-(4-methyl-piperazin-1-yl)-2-propyl-1,1-dioxo-1,4-dihydro-2H-1λ^6-benzo[1,2,4]thiadiazin-3-one]
- IC50 [1]: 436 nM
- IC50 [2, 10]: 0.4 nM
- IC50 [2, 11]: 0.4 nM
- IC50 [3]: > 10000 nM
- IC50 [5]: > 10000 nM
- IC50 [6]: > 10000 nM
- IC50 [7]: 2390 nM
- IC50 [8]: 203 nM
- IC50 [9]: 1860 nM
- melting point: 91 to 93 °C

Structure (SMILES): CCCCCCCCN1C(=O)N(Cc2ccccc2)c2cc(Cl)cc(N3CCN(C)CC3)c2S1(=O)=O [Example 39, 4-Benzyl-6-chloro-8-(4-methyl-piperazin-1-yl)-2-octyl-1,1-dioxo-1,4-dihydro-2H-1λ^6-benzo[1,2,4]thiadiazin-3-one]
- IC50 [1]: 1320 nM
- IC50 [2, 10]: 1.8 nM
- IC50 [2, 11]: 1.8 nM
- IC50 [3]: 3170 nM
- IC50 [5]: > 10000 nM
- IC50 [6]: > 10000 nM
- IC50 [7]: 894 nM
- IC50 [8]: 1050 nM
- IC50 [9]: 130 nM
- melting point: 88 to 91 °C

Structure (SMILES): CN1CCN(c2cc(Cl)cc3c2S(=O)(=O)N(Cc2cccc4ccccc24)C(=O)N3Cc2ccccc2)CC1 [Example 41, 4-Benzyl-6-chloro-8-(4-methyl-piperazin-1-yl)-2-naphthalen-1-ylmethyl-1,1-dioxo-1,4-dihydro-2H-1λ^6-benzo[1,2,4]thiadiazin-3-one]
- IC50 [1]: 365 nM
- IC50 [2, 10]: 0.8 nM
- IC50 [2, 11]: 0.8 nM
- IC50 [3]: > 10000 nM
- IC50 [5]: > 10000 nM
- IC50 [6]: > 10000 nM
- IC50 [7]: > 10000 nM
- IC50 [8]: 257 nM
- IC50 [9]: 420 nM
- melting point: 114 to 115 °C
